Test results published in patent US20260022143A1, “Cyclic Peptide Inhibitors of IL-23” (JANSSEN PHARMACEUTICA NV, priority 2022, published 2026).
Counter-ions that a name gives are not always drawn. Like-named read-outs stand apart in the source and are kept apart here. Positions of bridges follow the written chain, without caps; N, C: chain ends. Non-standard residues stand in square brackets, D forms with d. Residues, ends and D or L forms follow the SMILES beside them. *: point of attachment. Me3N+(CH2)2O(CH2)2O(CH2)2CO = C[N+](C)(C)CCOCCOCCC(=O)*; Trp(7-Me) = Cc1cccc2c(C[C@H](N)C(=O)O)c[nH]c12; dLys(Me3) = C[N+](C)(C)CCCC[C@@H](N)C(=O)O; 2Nal = N[C@@H](Cc1ccc2ccccc2c1)C(=O)O; AEF = NCCOc1ccc(C[C@H](N)C(=O)O)cc1; 3Pal = N[C@@H](Cc1cccnc1)C(=O)O; Lys(Me) = CNCCCC[C@H](N)C(=O)O; Pen = CC(C)(S)[C@H](N)C(=O)O; Thp = NC1(C(=O)O)CCOCC1; X3 = C[N+](C)(C)CCCCC*; Me2NCH2CH2 = CN(C)CC*; Tfa = O=C(C(F)(F)F)*; Sar = CNCC(=O)O

Key:
IL-23R = target: T1, IL-23R (Homo sapiens, UniProt Q5VWK5); experiment: IL23R Reporter Assay; type: cell-based; conditions: HEK293 cells containing IL-23R, IL-12RP1 and STAT-inducible firefly luciferase reporter; 10 ng/mL IL-23 (EC90); 5 h at 37° C.; read-out: IL23R Reporter Assay
T1 construct: host or cells: HEK293
T1 sequence (Q5VWK5 24-629): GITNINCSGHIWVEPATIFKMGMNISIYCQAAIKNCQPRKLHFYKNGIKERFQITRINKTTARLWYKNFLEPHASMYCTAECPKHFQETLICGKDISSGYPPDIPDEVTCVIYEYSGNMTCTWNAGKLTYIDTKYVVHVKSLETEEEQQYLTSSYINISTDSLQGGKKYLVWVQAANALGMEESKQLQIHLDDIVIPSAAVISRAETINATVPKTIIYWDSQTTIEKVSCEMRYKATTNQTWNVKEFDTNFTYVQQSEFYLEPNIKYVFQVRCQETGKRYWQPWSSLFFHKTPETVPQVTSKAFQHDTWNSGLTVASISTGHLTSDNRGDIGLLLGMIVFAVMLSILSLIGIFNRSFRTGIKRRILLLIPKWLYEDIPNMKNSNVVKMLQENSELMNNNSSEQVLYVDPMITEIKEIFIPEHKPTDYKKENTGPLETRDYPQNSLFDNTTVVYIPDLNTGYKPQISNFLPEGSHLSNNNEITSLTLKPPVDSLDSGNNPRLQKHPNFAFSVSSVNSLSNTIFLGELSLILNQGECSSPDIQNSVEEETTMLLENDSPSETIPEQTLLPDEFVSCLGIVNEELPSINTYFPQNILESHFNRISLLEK

[1] = target: T2, interleukin-23 (IL-23) receptor (Homo sapiens, UniProt Q5VWK5); experiment: PBMC pSTAT3 assay; type: cell-based
T2 construct: Cryopreserved peripheral blood mononuclear cells (PBMCs) from healthy donors were thawed; endogenous in cells; host or cells: cryopreserved PBMCs from healthy donors, expanded 4 days on anti-CD3 with IL-1
T2 sequence (Q5VWK5 24-629): T1 sequence (Q5VWK5 24-629)
Procedure: Cryopreserved peripheral blood mononuclear cells (PBMCs) from healthy donors were thawed and washed twice in ImmunoCult-XF T cell expansion medium (XF-TCEM) supplemented with CTL anti-aggregate wash. The cells were counted, resuspended at 2×10^5 cells per mL XF-TCEM supplemented with penicillin/streptomycin and 100 ng/mL IL-1 (BioLegend, 579404), and cultured in tissue culture flasks coated with anti-CD3 (eBioscience, 16-0037-85 or BD Pharmingen, 555329) at 37° C. in 5% CO2. On day 4 of culture, PBMCs were collected, washed twice in RPMI-1640 supplemented with 0.1% BSA (RPMI-BSA), and incubated in RPMI-BSA in upright tissue culture flasks for 4 hours at 37° C. in 5% CO2. Following this ‘starvation,’ a total of 6×10^4 cells in […] RPMI-BSA was transferred into each well of a 384-well plate pre-spotted with peptide or DMSO. The cells were incubated for 30 minutes prior to the addition of IL-23 at a final concentration of 5 ng/mL. The cells were stimulated with cytokine for 30 minutes at 37° C. in 5% CO2, transferred onto ice for 10 minutes, and lysed. Cell lysates were stored at −80° C. until phosphorylated STAT3 was measured using the phospho-STAT panel kit (Meso Scale Discovery, K15202D).

[2] = Exposed Polar Surface Area (EPSA); type: physicochemical; conditions: SFC on Chirex 3014 column, sample 1 mM DMSO stock
Method in brief: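 Chirex 3014 column, 35 °C, 4 mL/min; CO2/MeOH + 20 mM NH4 formate, 5→60% modifier at 20%/min. UV/MS detection. EPSA (Å^2) from retention time vs 8-standard calibration line; duplicates; 1 mM DMSO stock injected undiluted.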

IC50 (IL-23R) [nM]	IC50 [1] [nM]	EPSA ([2]; listed as 1) [Å^2]	EPSA ([2]; read-out: EPSA) [A^2]	EPSA [2] [Å^2]	SMILES
~6290	0.0076	179.2	166	–	CC(=O)NCCCC[C@H](NC(=O)C1(NC(=O)[C@H](Cc2ccc3ccccc3c2)NC(=O)[C@H](Cc2ccc(OCCN)cc2)NC(=O)[C@H]2NC(=O)[C@H](CCCCN(C)C(C)=O)NC(=O)[C@H](Cc3c[nH]c4c(C)cccc34)NC(=O)[C@H]([C@@H](C)O)NC(=O)[C@H](CC(N)=O)NC(=O)[C@@H](NC(C)=O)C(C)(C)SSC2(C)C)CCOCC1)C(=O)N[C@@H](CC(N)=O)C(=O)N[C@@H](Cc1cccnc1)C(=O)N(C)CC(N)=O [SEQ ID 57] (Ac-[Pen]NT[Trp(7-Me)][Lys(Me)](Ac)[Pen][AEF][2Nal][Thp]K(Ac)N[3Pal][Sar]-NH2; disulfide 1-6)
–	0.0032	–	150	–	CC(=O)N(C)CCCC[C@@H]1NC(=O)[C@H](Cc2c[nH]c3c(C)cccc23)NC(=O)[C@H]([C@@H](C)O)NC(=O)[C@H](CC(=O)N(C)C)NC(=O)[C@@H](NC(=O)C(F)(F)F)C(C)(C)SSC(C)(C)[C@@H](C(=O)N[C@@H](Cc2ccc(OCCN(C)C)cc2)C(=O)N[C@@H](Cc2ccc3ccccc3c2)C(=O)NC2(C(=O)N[C@@H](CCC(=O)O)C(=O)N[C@@H](CC(N)=O)C(=O)N[C@@H](Cc3cccnc3)C(=O)N(C)CC(=O)N(C)C)CCOCC2)NC1=O [compound 104, CF3CO-Pen(3)-N(N(Me)2)-T-7MeW-K(NMeAc)-Pen(3)-AEF(N(Me)2)-2Nal-THP-E-N-3Pya-Sar-CON(Me)2] (Tfa-[Pen]D(NMe2)T[Trp(7-Me)][Lys(Me)](Ac)[Pen]Y(Me2NCH2CH2)[2Nal][Thp]EN[3Pal][Sar]-NMe2; disulfide 1-6)
–	0.0075	–	155	–	CC(=O)N[C@H](CCCC[N+](C)(C)C)C(=O)N[C@@H]1C(=O)N[C@@H](CC(=O)N(C)C)C(=O)N[C@@H]([C@@H](C)O)C(=O)N[C@@H](Cc2c[nH]c3c(C)cccc23)C(=O)N[C@@H](CCCCN(C)C(C)=O)C(=O)N[C@H](C(=O)N[C@@H](Cc2ccc(OCCN(C)C)cc2)C(=O)N[C@@H](Cc2ccc3ccccc3c2)C(=O)NC2(C(=O)N[C@@H](CCC(=O)O)C(=O)N[C@@H](CC(N)=O)C(=O)N[C@@H](Cc3cccnc3)C(=O)N(C)CC(=O)N(C)C)CCOCC2)C(C)(C)SSC1(C)C [compound 105, MeCO-k(Me)3-Pen(3)-N(N(Me)2)-T-7MeW-K(NMeAc)-Pen(3)-AEF(N(Me)2)-2Nal-THP-E-N-3Pya-Sar-CON(Me)2] (Ac-[dLys(Me3)][Pen]D(NMe2)T[Trp(7-Me)][Lys(Me)](Ac)[Pen]Y(Me2NCH2CH2)[2Nal][Thp]EN[3Pal][Sar]-NMe2; disulfide 2-7)
–	0.013	–	–	144.54	CC(=O)N(C)CCCC[C@@H]1NC(=O)[C@H](Cc2c[nH]c3c(C)cccc23)NC(=O)[C@H]([C@@H](C)O)NC(=O)[C@H](CC(=O)N(C)C)NC(=O)[C@@H](NC(=O)CCOCCOCC[N+](C)(C)C)C(C)(C)SSC(C)(C)[C@@H](C(=O)N[C@@H](Cc2ccc(OCCCCC[N+](C)(C)C)cc2)C(=O)N[C@@H](Cc2ccc3ccccc3c2)C(=O)NC2(C(=O)N[C@@H](CCCCN(C)C(C)=O)C(=O)N[C@@H](CC(N)=O)C(=O)N[C@@H](Cc3cccnc3)C(=O)N(C)CC(=O)N(C)C)CCOCC2)NC1=O [compound 164, cPEG3aCO-Pen(3)-N(N(Me)2)-T-7MeW-K(NMeAc)-Pen(3)-TMAPF-2Nal-THP-K(NMeAc)-N-3Pya-Sar-CON(Me)2] ({Me3N+(CH2)2O(CH2)2O(CH2)2CO}-[Pen]D(NMe2)T[Trp(7-Me)][Lys(Me)](Ac)[Pen]Y(X3)[2Nal][Thp][Lys(Me)](Ac)N[3Pal][Sar]-NMe2; disulfide 1-6)
